# Several values for one entry are separate records, joined by “and”; a condition that tells them apart may be missing. Equal entries are not always repeated.
# How the values were obtained:
# GDNF [1] = test: GDNF induction by Compound I suspension in wild-type mice; type: in vivo, mouse; conditions: suspension intravitreally; for GDNF mRNA induction vs. vehicle / GDNF protein level vs. vehicle: wild-type mice
# Protocol: To study GDNF induction by Compound I suspension (60 mg/ml), 2 ul of suspension (n=35) or Vehicle (n=5) were administered intravitreally to 3-week old wild-type (C57/Bl6) mice. A beveled glass needle connected to a Hamilton syringe through polyethylene tubing was ysed. During the injection, corneal paracenthesis was performed to reduce intraocular pressure.
# Animals were euthanized at several timepoints after injection for enucleation and RNA/protein analysis (n=5 for each timepoint, n=4 for 7 days and 14 days): vehicle at 1 hour, Compound I at 1 hour, 1 day, 2 days, 7 days and 14 days. The treated and untreated eyes were enucleated and were collected for mRNA and protein expression as previously described. The treated and untreated eyes were enucleated and placed in 250 ul of chilled RNAlater buffer (Qiagen) and stored at 4° C. The eyes were excised and total neural retina with retinal pigment epithelium was collected into 400 ul of Lysis buffer (Qiagen RNeasy kit) with beta-mercaptoethanol. Total RNA was isolated using RNeasy kit (Qiagen) and eluted with 100 ul of Ultrapure water (Life technologies). All flow through from RNA isolation (˜2.4 ml) was collected and mixed with 10 ml of ice-cold (−20° C.) acetone for protein precipitation. The protein was precipitated at −20° C. for 30 minutes, then pelleted at 3500 rpm for 20 min. Pellets were washed once with 100% ethanol, then reconstituted with 300 ul of RIPA buffer with AEBSF. mRNA and protein expression were assessed by qPCR and Western blot (WB). The results were analyzed by ANOVA (p<0.05).
# GDNF [2] = test: GDNF induction in human retinal progenitor cells (hRPC) (ELISA); type: cell-based
# Protocol: GDNF induction […] was assessed using three retinal-specific cell systems: ARPE19, as a model for human retinal pigment epithelium; human retinal progenitor cells (hRPC), as a substitute for human retinal neurons/glia; and mouse eyecups, differentiated from induced pluripotent stem cells. ARPE19 cells are described in Dunn et al., Exp. Eye Res. 62: 155-169, 1996. To study GDNF induction in a human retinal pigment epithelium cell line, ARPE19, thawed ARPE19 cells (passage 33, ATCC) were plated on fibronectin (Akron)-coated plates (Nunc) in stimulation medium at a density of 10 k cells/sq.cm. The flasks were incubated at standard conditions: 37° C., 5% CO2, 100% humidity. Cells were plated 24 hours prior to Compound I treatment and were grown in Ultraculture medium (Lonza), supplemented with 1×MEM NEAA (Gibco), 1× L-glutamine (Gibco), 1× Antibiotic/antimycotic (Gibco), 2 ng/ml bFGF (Peprotech), 1 ng/ml EGF (Peprotech). For qPCR analysis, the experiments were performed in 35 mm Petri dishes in 2 ml of medium with Compound I concentration of 100 nM (DMSO-based solution). Total mRNA was isolated at 0, 15, 30, 60, 120, 240 minutes post stimulation. For protein expression determination by ELISA, the experiments were performed in 96 well plates in 100 ul of medium with each condition (concentrations ranging from 0 to 10 uM) reproduced in 3 wells. For ELISA analysis, plates were removed from out of incubator 24 hours post stimulation and freeze-thawed followed by CHAPS lysis buffer treatment for total […] extraction. The ELISA analysis for GDNF was performed using GDNF DuoSet kit (R&D systems) using manufacturer's instructions.
# Experiments with human retinal progenitor cell line (hRPC) were performed in a similar manner (Baranov et al., Tissue Eng Part A 20, 140124133442001-1475 (2014)): hRPC were thawed and plated (passage 15) in 96 well plates using the same conditions and density as described above for ARPE19. The cell treatment, sample collection and readout were performed using the same protocol. […]
# GDNF [3] = test: GDNF induction by Compound I aqueous solution in rhodopsin knockout mice; type: in vivo, mouse; conditions: 3 hours; for GDNF protein upregulation: vehicle 1.2 fold
# Protocol: All animal procedures were performed under general (intraperitoneal ketamine/xylazine) and topical (proparacaine drops) anesthesia. Tropicamide was applied for pupil dilation. After injection, the eye was treated with antibiotic ointment (Bacitracin-Neomycin-Polymyxin). The same procedures were applied to control eyes.
# To study GDNF induction by Compound I aqueous solution, 1 ul of 10 uM (n=5) or 100 uM (n=5) water-based Compound I or 1 ul of Vehicle (n=5) was administered intravitreally using beveled glass needle, connected to a Hamilton syringe through polyethylene tubing. During the injection, corneal paracenthesis was performed to reduce intraocular pressure. Compound I was injected into 4-week old wildtype (C57/Bl6, Jackson labs) and rhodopsin knockout (Humphries et al., Nat. Genet. 15, 216-219 (1997)).
# Three hours after the injection animals were euthanized using CO2, then the death was confirmed by cervical dislocation. The treated and untreated eyes were enucleated and placed in 250 ul of chilled RNAlater buffer (Qiagen) and stored at 4° C. Later, eyes were excised and total neural retina with retinal pigment epithelium were collected into 400 ul of Lysis buffer (Qiagen RNeasy kit) with 5 mM beta-mercaptoethanol. Total RNA was isolated using RNeasy kit (Qiagen) and eluted with 100 ul of Ultrapure water (Life technologies). All flow through from RNA isolation (˜2.4 ml) was collected and mixed with 10 ml of ice-cold (−20° C.) acetone for protein precipitation. The protein was precipitated at −20° C. for 30 minutes, then pelleted at 3500 rpm for 20 min. Pellets were washed once with 100% ethanol, then reconstituted with 300 ul of RIPA buffer with 0.2 mM 4-benzenesulfonyl fluoride hydrochloride (Tocris). mRNA and protein expression were assessed by qPCR and Western Blot and normalized to GAPDH and βActin. The statistical analysis was performed using a T-test (p<0.05) with Bonferroni post-hoc test.
structure (smiles),measurement,setting,value
"COc1cc2c(cc1S(=O)(=O)c1ccc(OCc3ccc(Cl)cc3)cc1)CCN(C)CC2 [Compound I, 7-[4-(4-chloro-benzyloxy)-benzenesulfonyl]-8-methoxy-3-methyl-2,3,4,5-tetrahydro-1H-3-benzazepine]",GDNF mRNA upregulation over the time course,"GDNF [1]; C57Bl/6 mice, up to 14 days",> 1.8 fold
same,GDNF protein upregulation over the time course,"GDNF [1]; C57Bl/6 mice, up to 14 days",> 2.8 fold
same,GDNF mRNA induction vs. vehicle,GDNF [1]; 1 hour,1.4 fold
same,GDNF protein level vs. vehicle,GDNF [1]; 1 hour,0.9 fold
same,GDNF mRNA induction vs. vehicle,GDNF [1]; 1 day,1.3 fold
same,GDNF protein level vs. vehicle,GDNF [1]; 1 day,1.6 fold
same,GDNF mRNA induction vs. vehicle,GDNF [1]; 2 days,1.2 fold
same,GDNF protein level vs. vehicle,GDNF [1]; 2 days,2.4 fold
same,GDNF mRNA induction vs. vehicle,GDNF [1]; 7 days,1.8 fold
same,GDNF protein level vs. vehicle,GDNF [1]; 7 days,2.7 fold
same,GDNF mRNA induction vs. vehicle,GDNF [1]; 14 days,1.8 fold
same,GDNF protein level vs. vehicle,GDNF [1]; 14 days,3.2 fold
same,GDNF induction,GDNF [2],More than 2 fold
same,"GDNF induction, result in words",GDNF [2]; 0 to 10 uM,Significant dose-dependent GDNF induction
same,concentration of Compound I at which GDNF was upregulated,"GDNF [2]; ELISA, FIG. 1B",1 µM
same,GDNF mRNA induction compared to vehicle-treated control,GDNF [3]; 10 uM solution intravitreally,1.8 fold
same,GDNF protein upregulation,GDNF [3]; 10 uM solution intravitreally,> 2 fold and 2.8 fold
same,GDNF mRNA induction compared to vehicle-treated control,GDNF [3]; 100 uM solution intravitreally,1.7 fold
same,GDNF protein upregulation,GDNF [3]; 100 uM solution intravitreally,> 2 fold and 2.6 fold

# — patent US20180228811A1, “GDNF INDUCTION FOR THE TREATMENT OF RETINAL DISORDERS” (THE SCHEPENS EYE RESEARCH INSTITUTE, INC., priority 2014, published 2018)
